From ChEMBL document CHEMBL2396526, “Chromenylchalcones showing cytotoxicity on human colon cancer cell lines and in silico docking with aurora kinases” (Bioorg Med Chem, 2013)
Calls of active or inactive are those of the source. No cut-off for these calls is given here.

Key:
HCT-116 [1] = assay: Induction of apoptosis in human HCT116 cells assessed as caspase-7 cleavage at 20 uM by Western blot analysis; assay type: functional, cell-based; details: TDE = time-dependent effect
HCT-116 [2] = assay: Cell cycle arrest in human HCT116 cells assessed as accumulation at sub-G1 phase at 20 uM after 12 hrs by propidium iodide staining-based flow cytometric analysis (reference value: 2.9%); assay type: functional
HCT-116 [3] = assay: Cell cycle arrest in human HCT116 cells assessed as accumulation at S phase at 20 uM after 48 hrs by propidium iodide staining-based flow cytometric analysis (reference value: 2.9%); assay type: functional
[4] = target: Tyrosine-protein kinase Lck (Homo sapiens) (UniProt P06239); assay: Inhibition of human LCK
Chain of Tyrosine-protein kinase Lck (Homo sapiens) (P06239 2-509 limits assumed): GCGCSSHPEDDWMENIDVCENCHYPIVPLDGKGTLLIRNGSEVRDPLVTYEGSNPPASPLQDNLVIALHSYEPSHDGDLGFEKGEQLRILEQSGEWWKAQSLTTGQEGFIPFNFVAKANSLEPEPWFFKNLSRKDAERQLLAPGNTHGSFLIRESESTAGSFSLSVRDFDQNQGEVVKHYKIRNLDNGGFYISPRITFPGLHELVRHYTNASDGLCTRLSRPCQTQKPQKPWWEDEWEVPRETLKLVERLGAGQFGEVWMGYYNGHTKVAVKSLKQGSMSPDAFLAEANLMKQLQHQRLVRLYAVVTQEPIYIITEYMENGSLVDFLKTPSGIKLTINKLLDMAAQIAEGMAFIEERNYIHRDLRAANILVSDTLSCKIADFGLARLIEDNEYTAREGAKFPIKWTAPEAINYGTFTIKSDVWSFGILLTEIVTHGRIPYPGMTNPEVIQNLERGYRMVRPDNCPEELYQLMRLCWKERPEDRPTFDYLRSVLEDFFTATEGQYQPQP

[5] = target: RAF proto-oncogene serine/threonine-protein kinase (Homo sapiens) (UniProt P04049); assay: Inhibition of human c-RAF
Chain of RAF proto-oncogene serine/threonine-protein kinase (Homo sapiens) (P04049 whole entry): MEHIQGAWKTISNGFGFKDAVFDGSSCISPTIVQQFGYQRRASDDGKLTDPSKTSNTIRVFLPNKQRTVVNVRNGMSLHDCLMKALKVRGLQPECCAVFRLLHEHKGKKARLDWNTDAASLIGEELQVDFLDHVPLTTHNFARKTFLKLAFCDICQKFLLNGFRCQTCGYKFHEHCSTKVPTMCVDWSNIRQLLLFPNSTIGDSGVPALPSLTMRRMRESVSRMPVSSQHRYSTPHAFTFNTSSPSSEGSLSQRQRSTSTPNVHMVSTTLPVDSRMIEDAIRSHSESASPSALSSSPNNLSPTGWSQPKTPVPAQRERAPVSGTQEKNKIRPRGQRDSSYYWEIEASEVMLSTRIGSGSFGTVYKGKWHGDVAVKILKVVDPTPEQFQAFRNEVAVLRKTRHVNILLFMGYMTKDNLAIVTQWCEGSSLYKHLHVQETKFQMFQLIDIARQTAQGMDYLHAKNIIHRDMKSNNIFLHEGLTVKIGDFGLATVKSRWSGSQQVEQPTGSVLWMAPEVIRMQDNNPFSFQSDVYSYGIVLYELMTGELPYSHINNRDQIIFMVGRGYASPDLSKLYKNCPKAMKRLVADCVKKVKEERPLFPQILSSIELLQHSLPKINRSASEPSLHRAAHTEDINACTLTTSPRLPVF

HCT-116 [6] = assay: Cell cycle arrest in human HCT116 cells assessed as accumulation at G2/M phase at 20 uM after 24 hrs by propidium iodide staining-based flow cytometric analysis (reference value: 2.9%); assay type: functional
HCT-116 [7] = assay: Cell cycle arrest in human HCT116 cells assessed as accumulation at sub-G1 phase at 20 uM after 48 hrs by propidium iodide staining-based flow cytometric analysis (reference value: 2.9%); assay type: functional
[8] = target: T1, Serine/threonine-protein kinase Chk1 (Homo sapiens) (UniProt O14757); assay: Inhibition of human CHK1
T1 sequence (whole entry): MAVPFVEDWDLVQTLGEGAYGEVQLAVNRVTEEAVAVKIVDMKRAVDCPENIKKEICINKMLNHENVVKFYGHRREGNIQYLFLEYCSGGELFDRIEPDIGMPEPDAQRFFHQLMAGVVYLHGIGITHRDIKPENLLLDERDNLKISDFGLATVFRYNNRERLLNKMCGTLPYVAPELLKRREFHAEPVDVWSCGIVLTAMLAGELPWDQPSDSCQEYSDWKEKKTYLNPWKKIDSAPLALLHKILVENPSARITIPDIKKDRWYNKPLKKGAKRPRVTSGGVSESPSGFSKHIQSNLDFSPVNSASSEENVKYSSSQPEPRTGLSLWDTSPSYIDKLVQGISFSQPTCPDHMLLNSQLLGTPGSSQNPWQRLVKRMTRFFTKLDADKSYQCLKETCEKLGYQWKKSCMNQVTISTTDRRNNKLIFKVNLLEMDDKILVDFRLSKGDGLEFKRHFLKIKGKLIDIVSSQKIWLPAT

HCT-116 [9] = assay: Cytotoxicity against human HCT116 cells assessed as decrease in cell viability at > 20 uM after 24 hrs by CCK8 assay; assay type: functional, cell-based
HCT-116 [10] = assay: Induction of apoptosis in human HCT116 cells assessed as appearance of cleaved caspase-7 at fragmented chromosomes at 20 uM after 24 hrs by Hoechst 33258 staining-based fluorescence microscopic analysis; assay type: functional, cell-based
[11] = target: T2, Aurora kinase A (Homo sapiens) (UniProt O14965); assay: Inhibition of human aurora-A; details: concentration not given here
T2 sequence (whole entry): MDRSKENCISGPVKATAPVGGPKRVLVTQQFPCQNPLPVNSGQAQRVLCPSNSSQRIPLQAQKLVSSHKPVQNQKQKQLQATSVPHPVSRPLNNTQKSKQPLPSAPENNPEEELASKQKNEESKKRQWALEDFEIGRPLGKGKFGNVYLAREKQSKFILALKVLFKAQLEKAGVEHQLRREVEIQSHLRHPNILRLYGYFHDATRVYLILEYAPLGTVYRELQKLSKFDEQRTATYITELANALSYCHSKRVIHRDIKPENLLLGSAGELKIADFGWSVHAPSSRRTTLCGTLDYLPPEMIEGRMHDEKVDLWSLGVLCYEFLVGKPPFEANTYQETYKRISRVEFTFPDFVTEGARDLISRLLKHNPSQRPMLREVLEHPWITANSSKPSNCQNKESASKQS

HCT-116 [12] = assay: Cell cycle arrest in human HCT116 cells assessed as accumulation at sub-G1 phase at 20 uM by propidium iodide staining-based flow cytometric analysis; assay type: functional; details: TDE = time-dependent effect
HCT-116 [13] = assay: Cell cycle arrest in human HCT116 cells assessed as accumulation at G2/M phase at 20 uM after 12 hrs by propidium iodide staining-based flow cytometric analysis (reference value: 20.8%); assay type: functional
HCT-116 [14] = assay: Induction of apoptosis in human HCT116 cells assessed as late apoptotic cells at 20 uM after 24 hrs by annexin V-FITC/propidium iodide staining-based flow cytometric analysis (reference value: 5%); assay type: functional
HCT-116 [15] = assay: Cell cycle arrest in human HCT116 cells assessed as accumulation at S phase at 20 uM after 24 hrs by propidium iodide staining-based flow cytometric analysis (reference value: 2.9%); assay type: functional
HCT-116 [16] = assay: Induction of apoptosis in human HCT116 cells assessed as viable cells at 20 uM after 24 hrs by annexin V-FITC/propidium iodide staining-based flow cytometric analysis (reference value: 71 %); assay type: functional; details: HCT-116, 24 h, read-out: Activity
HCT-116 [17] = assay: Cell cycle arrest in human HCT116 cells assessed as accumulation at G2/M phase at 20 uM after 48 hrs by propidium iodide staining-based flow cytometric analysis (reference value: 2.9%); assay type: functional
HCT-116 [18] = assay: Induction of apoptosis in human HCT116 cells assessed as early apoptotic cells at 20 uM after 24 hrs by annexin V-FITC/propidium iodide staining-based flow cytometric analysis (reference value: 22%); assay type: functional
HCT-116 [19] = assay: Cell cycle arrest in human HCT116 cells assessed as accumulation at G1 phase at 20 uM after 12 hrs by propidium iodide staining-based flow cytometric analysis (reference value: 48.2%); assay type: functional
HCT-116 [20] = assay: Induction of apoptosis in human HCT116 cells assessed as PARP cleavage at 20 uM after 24 to 48 hrs by Western blot analysis; assay type: functional, cell-based
HCT-116 [21] = assay: Induction of apoptosis in human HCT116 cells assessed as dead cells at 20 uM after 24 hrs by annexin V-FITC/propidium iodide staining-based flow cytometric analysis (reference value: 2%); assay type: functional
HCT-116 [22] = assay: Cell cycle arrest in human HCT116 cells assessed as accumulation at sub-G1 phase at 20 uM after 24 hrs by propidium iodide staining-based flow cytometric analysis (reference value: 2.9%); assay type: functional
HCT-116 [23] = assay: Cell cycle arrest in human HCT116 cells assessed as accumulation at G1 phase at 20 uM after 24 hrs by propidium iodide staining-based flow cytometric analysis (reference value: 2.9%); assay type: functional
Homo sapiens = species on record: Homo sapiens; assay: Inhibition of human Rsk
HCT-116 [24] = assay: Cell cycle arrest in human HCT116 cells assessed as accumulation at S phase at 20 uM after 12 hrs by propidium iodide staining-based flow cytometric analysis (reference value: 26.9%); assay type: functional
HCT-116 [25] = assay: Cytotoxicity against human HCT116 cells assessed as cell survival at 5 to 40 uM after 7 days by crystal violet staining assay; assay type: functional, cell-based; details: HCT-116, 168 h
[26] = target: [Pyruvate dehydrogenase (acetyl-transferring)] kinase isozyme 1, mitochondrial (Homo sapiens) (UniProt Q15118); assay: Inhibition of human PDK1

COc1ccc2c(c1)C=C(C(=O)/C=C/c1c(OC)cc(OC)cc1OC)CO2
Activity (HCT-116 [1]): tde | Activity (HCT-116 [2]): 15.1% | Activity (HCT-116 [3]): 13.2% | inhibition [4]: inactive | inhibition [5]: inactive | Activity (HCT-116 [6]): 21.5% | Activity (HCT-116 [7]): 45.3% | inhibition [8]: inactive | Activity (HCT-116 [9]): Active | Activity (HCT-116 [10]): Active | inhibition [11]: 69% | Activity (HCT-116 [12]): tde | Activity (HCT-116 [13]): 44.2% | Activity (HCT-116 [14]): 14% | Activity (HCT-116 [15]): 13.6% | viability at 20 µM (HCT-116 [16]): 0% | Activity (HCT-116 [17]): 8.4% | Activity (HCT-116 [18]): 86% | Activity (HCT-116 [19]): 18.9% | Activity (HCT-116 [20]): Active | Activity (HCT-116 [21]): 0% | Activity (HCT-116 [22]): 35.3% | Activity (HCT-116 [23]): 23.1% | inhibition (Homo sapiens): inactive | Activity (HCT-116 [24]): 19.6% | IC50 (HCT-116 [25]): 93 nM | inhibition [26]: inactive
